In US8895558B2, “Arylpiperazine-containing pyrrole 3-carboxamide derivatives for treating depressive disorders” (Green Cross Corporation, priority 2008, dated 2014):
Where a name gives a salt, the structure may show the parent alone.

Assays:
[1] = target: T1, human recombinant 5-HT2C receptor (Homo sapiens, UniProt P28335); experiment: Binding affinity for serotonin 5-HT2C receptor ([3H]Mesulergine); settings: CHO-K1 membranes, 1.3 nM [3H]Mesulergine
T1 construct: purchased PerkinElmer
T1 sequence (P28335 33-458): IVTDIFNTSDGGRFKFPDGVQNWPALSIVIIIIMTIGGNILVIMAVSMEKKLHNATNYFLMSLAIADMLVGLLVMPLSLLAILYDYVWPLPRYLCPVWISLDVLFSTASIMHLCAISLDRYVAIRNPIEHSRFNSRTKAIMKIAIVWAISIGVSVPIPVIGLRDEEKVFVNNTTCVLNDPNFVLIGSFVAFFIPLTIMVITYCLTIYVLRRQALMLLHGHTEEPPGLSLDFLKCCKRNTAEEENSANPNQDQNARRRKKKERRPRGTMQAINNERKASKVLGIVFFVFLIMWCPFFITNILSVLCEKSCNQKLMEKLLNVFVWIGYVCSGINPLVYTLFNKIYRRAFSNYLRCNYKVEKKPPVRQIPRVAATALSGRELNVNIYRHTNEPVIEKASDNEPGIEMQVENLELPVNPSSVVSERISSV
Method in brief: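 Competition binding with [3H]mesulergine; nonspecific binding defined with 100 uM mianserin. Incubation 60 min at 27, stopped by rapid filtration onto glass fiber filters presoaked in 0.5% PEI.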

[2] = target: T2, human serotonin transporter (Homo sapiens, UniProt P31645); experiment: Binding affinity for serotonin transporter ([3H]Imipramine); settings: HEK-293 membranes, 2 nM [3H]Imipramine
T2 construct: purchased PerkinElmer; host or cells: HEK-293
T2 sequence (P31645 whole entry): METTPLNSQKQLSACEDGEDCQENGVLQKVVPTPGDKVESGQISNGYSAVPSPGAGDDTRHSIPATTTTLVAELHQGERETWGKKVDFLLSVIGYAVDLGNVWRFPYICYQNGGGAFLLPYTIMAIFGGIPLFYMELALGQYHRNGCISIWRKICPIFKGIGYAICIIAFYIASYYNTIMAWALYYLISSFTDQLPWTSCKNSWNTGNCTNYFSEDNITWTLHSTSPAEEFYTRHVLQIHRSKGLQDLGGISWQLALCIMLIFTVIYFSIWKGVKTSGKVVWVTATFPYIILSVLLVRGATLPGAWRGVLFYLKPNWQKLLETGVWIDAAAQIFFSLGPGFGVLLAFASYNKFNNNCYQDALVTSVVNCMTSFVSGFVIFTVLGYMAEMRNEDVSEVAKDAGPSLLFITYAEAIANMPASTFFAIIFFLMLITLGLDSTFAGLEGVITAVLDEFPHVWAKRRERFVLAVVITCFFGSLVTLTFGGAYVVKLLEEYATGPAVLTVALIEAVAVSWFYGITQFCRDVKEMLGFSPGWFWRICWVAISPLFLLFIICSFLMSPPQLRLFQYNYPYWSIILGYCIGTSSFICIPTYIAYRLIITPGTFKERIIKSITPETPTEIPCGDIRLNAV
Method in brief: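 Membranes from HEK-293 cells expressing human serotonin transporter (5 ug/well) incubated with compound and 2 nM [3H]imipramine in 50 mM Tris-HCl pH 7.4, 120 mM NaCl, 5 mM KCl, 30 min at 27. Bound ligand separated by filtration onto glass fiber filters presoaked in 0.5% PEI, washed with ice-cold Tris-HCl/0.9% NaCl.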

[3] = tested on: mice; experiment: Anti-depressants activity in forced swimming test; format: in vivo; settings: 100 mg/kg po, 60 min before testing, hydrochloride
Experimental: To evaluate the anti-depressants activity of the compounds, the inhibitory effects on immobility in forced swimming test in mice were measured according to the methods described by Porsolt et al. [Porsolt R D et al., Eur J Pharmacol. 1978, 51, 291-294].
Each mouse was placed in a 25-cm glass cylinder (10 cm diameter) containing 15 cm of water maintained at 22±1 , and was forced to swim for 10 min. Twenty-four hours later, the mouse was replaced into the cylinder and the total duration of immobility was recorded during the last 5 min of the 6-min testing period. Mice are judged immobile when they float in an upright position and make only small movements to keep their head above water. Test drugs were suspended in 3% Tween 80 solution, and administered orally (po) 60 min before the testing.

[4] = target: T3, human recombinant serotonin 5-HT2A receptor (Homo sapiens, UniProt P28223); experiment: Binding affinity for serotonin 5-HT2A receptor ([3H]Ketanserin); settings: CHO-K1 expressed receptor, 1 nM [3H]Ketanserin
T3 construct: purchased PerkinElmer Life and Analytical Sciences, USA; host or cells: CHO-K1
T3 sequence (P28223 whole entry): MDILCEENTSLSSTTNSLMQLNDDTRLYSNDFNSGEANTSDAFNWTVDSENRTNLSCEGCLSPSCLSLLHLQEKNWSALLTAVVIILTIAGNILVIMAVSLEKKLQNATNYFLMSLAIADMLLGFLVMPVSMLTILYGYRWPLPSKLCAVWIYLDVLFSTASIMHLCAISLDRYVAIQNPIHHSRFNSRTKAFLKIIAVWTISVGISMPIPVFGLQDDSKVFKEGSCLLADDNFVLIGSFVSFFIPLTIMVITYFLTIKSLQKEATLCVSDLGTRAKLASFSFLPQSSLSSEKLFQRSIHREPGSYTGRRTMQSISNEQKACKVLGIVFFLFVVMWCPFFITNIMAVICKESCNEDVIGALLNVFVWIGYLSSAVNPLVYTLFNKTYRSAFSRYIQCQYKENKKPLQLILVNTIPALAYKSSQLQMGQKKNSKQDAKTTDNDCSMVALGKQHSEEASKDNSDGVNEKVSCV
Method in brief: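 Membranes from CHO-K1 cells expressing recombinant receptor (5 ug/well) incubated 60 min at 27 with 1 nM [3H]ketanserin in 50 mM Tris-HCl pH 7.4, 4 mM CaCl2, 0.1% ascorbic acid; mianserin 20 uM defined nonspecific binding. Filtration and counting; IC50 by nonlinear regression over 7-8 concentrations in duplicate.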

Row | SMILES | IC50 [1] [nM] | IC50 [2] [nM] | immobility in forced swimming test [3] [%] | IC50 [4] [nM]
1 | Cc1[nH]c(-c2ccccc2)cc1C(=O)NCCN1CCN(c2cccc(Cl)c2Cl)CC1.Cl [Example 48, N-(2-(4-(2,3-dichlorophenyl)piperazin-1-yl)ethyl)-2-methyl-5-phenyl-1H-pyrrole-3-carboxamide hydrochloride] | 156 | 57 | 26.1 | 175
2 | CCCn1c(-c2ccccc2)cc(C(=O)NCCCN2CCN(c3ccccc3Br)CC2)c1C [Example 88, N-(3-(4-(2-bromophenyl)piperazin-1-yl)propyl)-2-methyl-5-phenyl-1-propyl-1H-pyrrole-3-carboxamide] | 633 | 225 |  | 221
3 | CCn1c(-c2ccccc2)cc(C(=O)NCCN2CCN(c3cccc(Cl)c3Cl)CC2)c1C [Example 49, N-(2-(4-(2,3-dichlorophenyl)piperazin-1-yl)ethyl)-1-ethyl-2-methyl-5-phenyl-1H-pyrrole-3-carboxamide hydrochloride] | 96 | 85 |  | 100
4 | C=CCCc1cc(C(=O)NCCCN2CCN(c3cccc(Cl)c3Cl)CC2)c(C)[nH]1 [Example 135, 5-(but-3-enyl)-N-(3-(4-(2,3-dichlorophenyl)piperazin-1-yl)propyl)-2-methyl-1H-pyrrole-3-carboxamide] | 157 | 144 |  | 65
5 | Cc1c(C(=O)NCCCN2CCN(c3cccc(Cl)c3Cl)CC2)c(C)n(C)c1-c1ccccc1 [Example 79, N-(3-(4-(2,3-dichlorophenyl)piperazin-1-yl)propyl)-1,2,4-trimethyl-5-phenyl-1H-pyrrole-3-carboxamide hydrochloride] | 16 | 80 |  | 33
6 | CCCn1c(-c2ccccc2)cc(C(=O)NCCCN2CCN(c3cccc(OC)c3OC)CC2)c1C [Example 159, N-(3-(4-(2,3-dimethoxyphenyl)piperazin-1-yl)propyl)-2-methyl-5-phenyl-1-propyl-1H-pyrrole-3-carboxamide] | 977 | 1980 |  | 874
7 | CCCn1c(-c2ccccn2)cc(C(=O)NCCCN2CCN(c3cccc(Cl)c3Cl)CC2)c1C [Example 93, N-(3-(4-(2,3-dichlorophenyl)piperazin-1-yl)propyl)-2-methyl-1-propyl-5-(pyridin-2-yl)-1H-pyrrole-3-carboxamide dihydrochloride] | 639 | 397 |  | 58
8 | CCCCCCn1c(-c2ccccc2)cc(C(=O)NCCCN2CCN(c3cccc(Cl)c3Cl)CC2)c1C [Example 72, N-(3-(4-(2,3-dichlorophenyl)piperazin-1-yl)propyl)-1-hexyl-2-methyl-5-phenyl-1H-pyrrole-3-carboxamide hydrochloride] | 68 | 1190 |  | 300
9 | Cc1c(C(=O)NCCCN2CCN(c3cccc(Cl)c3)CC2)cc(-c2ccccc2)n1CC1CCCCC1 [Example 20, N-(3-(4-(3-chlorophenyl)piperazin-1-yl)propyl)-1-(cyclohexylmethyl)-2-methyl-5-phenyl-1H-pyrrole-3-carboxamide] | 611 | 213 |  | 1070
10 | CCn1c(-c2ccccc2)cc(C(=O)NCCCN2CCN(c3cccc(Cl)c3Cl)CC2)c1C [Example 11, N-(3-(4-(2,3-dichlorophenyl)piperazin-1-yl)propyl)-1-ethyl-2-methyl-5-phenyl-1H-pyrrole-3-carboxamide] | 66 | 182 |  | 376
